Test results from PubChem BioAssay (NCI).
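96-well plates; 48 h exposure; 5 concentrations. Endpoints by linear interpolation between flanking doses. Not reached: highest tested concentration assigned. TGI marks complete inhibition of growth.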

Assays:
Assay in all cases: growth of human tumour cells (NCI), 48 h
[1] = test system: 786-0 renal
[2] = test system: ACHN renal
[3] = test system: DU-145 prostate
[4] = test system: HCT-116 colon
[5] = test system: HOP-92 NSCLC
[6] = test system: HT29 colon
[7] = test system: LOX IMVI melanoma
[8] = test system: M14 melanoma
[9] = test system: MDA-MB-231 breast
[10] = test system: MDA-MB-435
[11] = test system: NCI-H460 lung
[12] = test system: NCI-H522 lung
[13] = test system: OVCAR-4 ovarian
[14] = test system: OVCAR-5 ovarian
[15] = test system: SF-295 CNS
[16] = test system: SK-MEL-2 melanoma
[17] = test system: SNB-19 CNS
[18] = test system: SNB-75 CNS
[19] = test system: SW-620 colon
[20] = test system: HCC-2998 colon

Structure (SMILES)	TGI [1] [µM]	TGI [2] [µM]	TGI [3] [µM]	TGI [4] [µM]	TGI [5] [µM]	TGI [6] [µM]	TGI [7] [µM]	TGI [8] [µM]	TGI [9] [µM]	TGI [10] [µM]	TGI [11] [µM]	TGI [12] [µM]	TGI [13] [µM]	TGI [14] [µM]	TGI [15] [µM]	TGI [16] [µM]	TGI [17] [µM]	TGI [18] [µM]	TGI [19] [µM]	TGI [20] [µM]
O=C(NC(=S)Nc1ccc2c(c1)Sc1ccccc1O2)c1ccc([N+](=O)[O-])cc1	> 100	> 100	> 100	> 100	> 100	> 100	> 100	> 100	> 100	> 100	> 100	> 100	> 100	> 100	> 100	> 100	> 100	> 100	> 100	
CCOP(=O)(OCC)C(C)(C)N(C)/C(F)=N/C(F)(F)F	> 100	> 100	> 100	> 100	> 100	> 100	> 100	> 100	> 100	> 100	> 100		> 100	> 100	> 100	> 100		> 100	> 100	> 100
COc1cc2c(cc1C[C@H]1[C@@H]3C[C@H]4c5c(c6ccccc6n5C)C[C@@H]([C@@H]3CO[C@]1(C)OC(C)=O)N4C)c1c(n2C)C2C[C@H]3C(C(C)=O)=COC[C@H]3[C@H](C1)N2C	5.89	10.1	> 25	5.39	> 25	4.86	> 25	6.24	11.2	> 25	8.21		> 25	11.6	10.4	15.2	> 25		11.3	0.246
O=C(c1ccccc1)c1ccc(N2C(=O)/C(=C/Cc3ccco3)N=C2c2ccccc2)c(N2C(=O)/C(=C/Cc3ccco3)N=C2c2ccccc2)c1	> 100	> 100	96.6	> 100	> 100	> 100	58.3	> 100	> 100	94.9	> 100		> 100	> 100	> 100	58.6	> 100	66.9	> 100	> 100
CC(=O)N(C)c1ccc(N=CN(C)C)cc1	> 100	> 100	> 100	> 100	> 100	> 100	> 100	> 100	> 100	> 100		> 100	> 100	> 100	> 100	> 100	> 100	> 100		
CC(C)(C)c1cc(-c2cc(C(C)(C)C)[nH]n2)n[nH]1	> 100	> 100	> 100	> 100	> 100	> 100	> 100	> 100	> 100	> 100	> 100	> 100	> 100	> 100	> 100	> 100	> 100		> 100	> 100
CC(=O)OCC(C)C1=C(OC(C)=O)C(=O)C2(C)C/C=C(/C)CC/C=C(\C)CCC(OC(C)=O)C(C)CCC12 (stereo unspecified)	28.1	39.3	36.7	36	20.3	33.5	35	34.2	27.7	38.2	10.8		82.3	25.4	31.3	30.6	43.9	> 100	40.7	31.2
COc1cc(C(=O)/C=C/c2ccc(OCCSCCCCCCCCCCSCCOc3ccc(/C=C/C(=O)c4cc(OC)c(OC)c(OC)c4)cc3)cc2)cc(OC)c1OC	> 100	> 100	> 100	> 100	> 100	> 100	> 100	> 100	> 100	> 100		> 100		> 100	> 100	> 100	> 100	> 100	> 100	> 100
CCN(CC)C(=O)Cn1c(-c2ccccc2)cc2ccccc21	> 100	> 100	> 100	> 100	77.7	> 100	> 100	> 100	> 100	> 100	> 100	> 100	> 100	> 100		> 100	> 100	> 100	> 100	> 100
c1cnn(C23C4C5C6C4C2C6C53)c1 (stereo unspecified)	> 100	> 100	> 100	> 100		> 100	> 100		> 100	> 100	> 100	> 100		> 100	> 100	> 100	> 100	> 100	> 100	> 100
CC(=O)OCC(OC(C)=O)C(OC(C)=O)C(/C=N\Nc1nc2ccccc2c(=O)[nH]1)=N\Nc1nc2ccccc2c(=O)[nH]1 (stereo unspecified)	> 100	> 100	> 100	> 100	> 100	> 100	> 100	> 100	> 100	> 100	47.6	> 100		> 100	> 100	> 100	> 100	> 100	> 100	36.3
CCCC(=O)NC(Nc1cc(C)ccn1)(C(=O)OCC)C(F)(F)F (stereo unspecified)	> 100	> 100	> 100	> 100	> 100	> 100	> 100	> 100	> 100	> 100		> 100	> 100	> 100	> 100	> 100	> 100	> 100	> 100	> 100
